Test results reported in patent publication US12503436B2, “Compounds and compositions for treating conditions associated with STING activity” (NOVARTIS PHARMA AG, priority 2021, dated 2025).

Molecular target: STING (Homo sapiens, UniProt Q86WV6, G230A/H232R/R293Q/R71H)
Assay: STING reporter assay in THP1-Dual KO-IFNAR2 cells (2′3′cGAMP stimulation, luciferase reporter)
Assay type: cell-based
Settings: 15 μM 2′3′cGAMP stimulation, 24 h, read-out: Pharmaron, THP1_IFNAR2 STING 24 h Luci Normalized: GeoMean EC50
Procedure, shortened: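 EC50 from secreted luciferase (QUANTI-Luc Plus luminescence of supernatant) after 24 h at 37 °C, 5% CO2. Cells: THP1-Dual KO-IFNAR2, treated with compound (0.0017-100 μM final) plus lipofected 2′3′cGAMP at 15 μM final.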

Sequence of STING (Q86WV6 whole entry R71H/G230A/H232R/R293Q): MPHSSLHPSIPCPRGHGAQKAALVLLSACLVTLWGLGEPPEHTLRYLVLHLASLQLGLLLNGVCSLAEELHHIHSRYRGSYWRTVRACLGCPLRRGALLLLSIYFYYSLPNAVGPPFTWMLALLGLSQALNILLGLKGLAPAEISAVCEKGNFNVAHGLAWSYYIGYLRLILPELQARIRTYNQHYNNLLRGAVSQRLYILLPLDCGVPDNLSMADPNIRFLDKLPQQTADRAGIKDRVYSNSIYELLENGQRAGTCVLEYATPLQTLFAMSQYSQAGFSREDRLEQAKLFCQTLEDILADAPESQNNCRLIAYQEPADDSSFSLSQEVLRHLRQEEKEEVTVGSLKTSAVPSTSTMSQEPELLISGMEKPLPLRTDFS

SMILES	EC50
CC(=O)Nc1c[nH]c2ccc(CCOc3ccc(C(F)(F)F)c(Br)c3)cc12 [Compound 543, N-(5-(2-(3-bromo-4-(trifluoromethyl)phenoxy)ethyl)-1H-indol-3-yl)acetamide]	200 to 1000 nM
CC(=O)Nc1c[nH]c2ccc(CCOc3ccc(C(F)(F)F)cc3Br)cc12 [Compound 544, N-(5-(2-(2-bromo-4-(trifluoromethyl)phenoxy)ethyl)-1H-indol-3-yl)acetamide]	200 to 1000 nM
[2H][13C]([2H])([2H])C(=O)Nc1c[nH]c2ccc(CCOc3ccc(C(F)(F)F)cc3)cc12 [Compound 545, N-(5-(2-(4-(trifluoromethyl)phenoxy)ethyl)-1H-indol-3-yl)acetamide-2-13C-2,2,2-d3]	40 to 200 nM
CC(=O)Nc1c[nH]c2ccc(CCOc3ccc(C(F)(F)F)cc3)c(Br)c12 [Compound 546, N-(4-bromo-5-(2-(4-(trifluoromethyl)phenoxy)ethyl)-1H-indol-3-yl)acetamide]	1000 to 5000 nM
CC(=O)Nc1c[nH]c2ccc(CCOc3ccccc3OCC(F)(F)F)cc12 [Compound 547, N-(5-(2-(2-(2,2,2-trifluoroethoxy)phenoxy)ethyl)-1H-indol-3-yl)acetamide]	200 to 1000 nM
C=CCc1ccccc1OCCc1ccc2[nH]cc(NC(C)=O)c2c1 [Compound 548, N-(5-(2-(2-allylphenoxy)ethyl)-1H-indol-3-yl)acetamide]	200 to 1000 nM
CC(=O)CCc1ccc(OCCc2ccc3[nH]cc(NC(C)=O)c3c2)cc1 [Compound 549, N-(5-(2-(4-(3-oxobutyl)phenoxy)ethyl)-1H-indol-3-yl)acetamide]	1000 to 5000 nM
O=C(Nc1c[nH]c2ccc(O[C@H]3C[C@@H](c4ccc(C(F)(F)F)nc4)C3)cc12)[C@H]1C[C@@H](CO)C1 [Compound 550, cis-3-(hydroxymethyl)-N-(5-(cis-3-(6-(trifluoromethyl)pyridin-3-yl)cyclobutoxy)-1H-indol-3-yl)cyclobutane-1-carboxamide]	200 to 1000 nM
O=C(Nc1c[nH]c2ccc(O[C@H]3C[C@@H](c4ccc(C(F)(F)F)nc4)C3)cc12)[C@H]1C[C@H](CO)C1 [Compound 551, trans-3-(hydroxymethyl)-N-(5-(cis-3-(6-(trifluoromethyl)pyridin-3-yl)cyclobutoxy)-1H-indol-3-yl)cyclobutane-1-carboxamide]	200 to 1000 nM
O=C(Nc1c[nH]c2ccc(O[C@H]3C[C@H](c4ccc(C(F)(F)F)nc4)C3)cc12)[C@H]1C[C@@H](CO)C1 [Compound 552, cis-3-(hydroxymethyl)-N-(5-(trans-3-(6-(trifluoromethyl)pyridin-3-yl)cyclobutoxy)-1H-indol-3-yl)cyclobutane-1-carboxamide]	200 to 1000 nM
O=C(Nc1c[nH]c2ccc(O[C@H]3C[C@H](c4ccc(C(F)(F)F)nc4)C3)cc12)[C@H]1C[C@H](CO)C1 [Compound 553, trans-3-(hydroxymethyl)-N-(5-(trans-3-(6-(trifluoromethyl)pyridin-3-yl)cyclobutoxy)-1H-indol-3-yl)cyclobutane-1-carboxamide]	200 to 1000 nM
O=C(Nc1c[nH]c2ccc(O[C@H]3C[C@H](c4ccc(C(F)(F)F)cc4)C3)cc12)C1CC(Cl)C1 (stereo partly drawn) [Compound 554, 3-chloro-N-(5-(trans-3-(4-(trifluoromethyl)phenyl)cyclobutoxy)-1H-indol-3-yl)cyclobutane-1-carboxamide]	200 to 1000 nM
CC(=O)Nc1c[nH]c2ccc(CCOc3cnc4c(C(F)(F)F)cccc4c3)cc12 [Compound 555, N-(5-(2-((8-(trifluoromethyl)quinolin-3-yl)oxy)ethyl)-1H-indol-3-yl)acetamide]	1000 to 5000 nM
CC(=O)Nc1c[nH]c2ccc(CCOc3ccc(Cl)nc3C)cc12 [Compound 556, N-(5-(2-((6-chloro-2-methylpyridin-3-yl)oxy)ethyl)-1H-indol-3-yl)acetamide]	5000 to 100000 nM
CC(=O)Nc1c[nH]c2ccc(CCOc3cnc(Cl)c(C)c3)cc12 [Compound 557, N-(5-(2-((6-chloro-5-methylpyridin-3-yl)oxy)ethyl)-1H-indol-3-yl)acetamide]	1000 to 5000 nM
CC(=O)Nc1c[nH]c2ccc(CCOc3ccccc3)cc12 [Compound 558, N-(5-(2-phenoxyethyl)-1H-indol-3-yl)acetamide]	200 to 1000 nM
CC(=O)Nc1c[nH]c2ccc(CCOc3cc(Cl)nc(C(F)(F)F)c3)cc12 [Compound 559, N-(5-(2-((2-chloro-6-(trifluoromethyl)pyridin-4-yl)oxy)ethyl)-1H-indol-3-yl)acetamide]	200 to 1000 nM
CC(=O)Nc1c[nH]c2ccc(CCOc3cnc4cccc(Cl)c4c3)cc12 [Compound 560, N-(5-(2-((5-chloroquinolin-3-yl)oxy)ethyl)-1H-indol-3-yl)acetamide]	1000 to 5000 nM
CC1(C(=O)Nc2c[nH]c3ccc(OCCc4ccc(C(F)(F)F)cc4)cc23)CN(CC(F)F)C1 [Compound 561, 1-(2,2-difluoroethyl)-3-methyl-N-(5-(4-(trifluoromethyl)phenethoxy)-1H-indol-3-yl)azetidine-3-carboxamide]	40 to 200 nM
N#C[C@H]1C[C@@H]1C(=O)Nc1c[nH]c2ccc(O[C@H]3C[C@H](c4ccc(C(F)(F)F)cc4)C3)cc12 [Compound 562, (1s,2s)-2-cyano-N-(5-((trans)-3-(4-(trifluoromethyl)phenyl)cyclobutoxy)-1H-indol-3-yl)cyclopropane-1-carboxamide]	200 to 1000 nM
CC1(C)CC1C(=O)Nc1c[nH]c2ccc(O[C@H]3C[C@H](c4ccc(C(F)(F)F)cc4)C3)cc12 (stereo partly drawn) [Compound 563, 2,2-dimethyl-N-(5-(trans-3-(4-(trifluoromethyl)phenyl)cyclobutoxy)-1H-indol-3-yl)cyclopropane-1-carboxamide]	40 to 200 nM
CC1(C(=O)Nc2c[nH]c3ccc(O[C@H]4C[C@H](c5ccc(C(F)(F)F)cc5)C4)cc23)CCC1 [Compound 564, 1-methyl-N-(5-(trans-3-(4-(trifluoromethyl)phenyl)cyclobutoxy)-1H-indol-3-yl)cyclobutane-1-carboxamide]	40 to 200 nM
N#CC1(C(=O)Nc2c[nH]c3ccc(O[C@H]4C[C@H](c5ccc(C(F)(F)F)cc5)C4)cc23)CC1 [Compound 565, 1-cyano-N-(5-(trans-3-(4-(trifluoromethyl)phenyl)cyclobutoxy)-1H-indol-3-yl)cyclopropane-1-carboxamide]	200 to 1000 nM
CC1(C(=O)Nc2c[nH]c3ccc(O[C@H]4C[C@H](c5ccc(C(F)(F)F)cc5)C4)cc23)CNC1 [Compound 567, 3-methyl-N-(5-(trans-3-(4-(trifluoromethyl)phenyl)cyclobutoxy)-1H-indol-3-yl)azetidine-3-carboxamide]	1000 to 5000 nM
CC(C)(C)OC(=O)N1CC(C)(C(=O)Nc2c[nH]c3ccc(O[C@H]4C[C@H](c5ccc(C(F)(F)F)cc5)C4)cc23)C1 [Compound 568, tert-butyl 3-methyl-3-((5-(trans-3-(4-(trifluoromethyl)phenyl)cyclobutoxy)-1H-indol-3-yl)carbamoyl)azetidine-1-carboxylate]	200 to 1000 nM
CC1(C(=O)Nc2c[nH]c3ccc(OCCc4ccc(C(F)(F)F)cc4)cc23)CNC1 [Compound 569, 3-methyl-N-(5-(4-(trifluoromethyl)phenethoxy)-1H-indol-3-yl)azetidine-3-carboxamide]	1000 to 5000 nM
